Laboratory results: patent publication US20230414611A1, “REFINED USES OF GABA A RECEPTOR MODULATORS IN TREATMENT OF FRAGILE X SYNDROME” (CHILDREN'S HOSPITAL MEDICAL CENTER, priority 2020, published 2023)
“Also recorded” adds a separate entry of the source.

Legend:
Assay type in all cases: in vivo, human
[1] = system: adults with Fragile X Syndrome (FXS); experiment: Clinical response and adverse effects by peripheral FMRP status
Description: This study aims at investigating the safety, tolerability, and blood pharmacodynamics of treatment with oral administration of AZD7325 in adults with Fragile X Syndrome (FXS). This study also investigates measures of efficacy and biomarkers during treatment.
The treatment conditions are provided Table 2 below:
Peripheral levels FMRP proteins in the patients were measured by an immunoassay using an antibody specific to FMRP. A fair percentage of males with FXS show mosaicism or a mix of […] and mutation cells. FIG. 3. Peripheral blood FMRP levels from the study participants are shown in Table 4 below (measured using dried blood spot samples using Luminex® Assay; see Example 3 below). The levels of FMRP measured using dried blood spot as disclosed herein are estimated to be about 7 folds higher than the FMRP levels in the blood of the same patient.

[2] = system: adults with Fragile X Syndrome (FXS); experiment: WJ auditory attention; conditions: FMRP-present male patients
[3] = system: adults with Fragile X Syndrome (FXS); experiment: ABC-FXS subscales; set-up: scale not given here; conditions: undetectable FMRP males (n=5), mean ± SD
Description: Tables 11-16 below summarize alternative […] scoring for the FXS patient treated with AZD7325. ABC-FXS was created for use within this population to take into account FXS-specific symptoms, and has six subscales: Irritability, Social Unresponsiveness/Lethargy, Stereotypy, Hyperactivity, Inappropriate Speech, and Social Avoidance.

[4] = system: adults with Fragile X Syndrome (FXS); experiment: RBANS list learning in AZD7325 clinical study; set-up: key to RBANS list learning, difference of least squares means, Estimate: Low - High / RBANS list learning, difference of least squares means, Estimate: Baseline - High: difference in raw score (number of words remembered); conditions: for RBANS_LL change: chronic
[5] = system: adults with Fragile X Syndrome (FXS); experiment: EEG relative band power
Description: Brain cells communicate via electrical impulses and are active all the time, even a subject is asleep. Electroencephalogram (EEG) detects the electrical activity in the brain. EEG can measure alpha waves, beta waves, and gamma waves. FXS patients typically show low alpha (Alpha waves are involved in higher level, complex cognition) and elevated gamma (representing noise, excessive synaptic connectivity-brain cells over connecting). Gamma activations represent high frequency brain rhythms, which may coincide with functional brain activity and/or muscular activity.
EEG statistical analysis strategies used in this study include: (a) electrode-specific relative band power estimation; (b) applying crossover-trial modeling to validate the absence of period effect; and (c) testing the within-subject relative power change per condition (i.e., determining impact of AZD7325 on gamma power in a treated patient).

[6] = low dose, male patients having undetectable peripheral FMRP
[7] = subgroup of males (outlier removed), high dose 15 mg twice per day oral
[8] = Placebo vs High dose, acute visit, FMRP undetectable subjects (n = 5)
[9] = Placebo vs High dose, acute visit, male subjects (n = 9)
[10] = Placebo vs High dose, chronic visit, FMRP undetectable subjects (n = 5)
[11] = Placebo vs High dose, chronic visit, all subjects (n = 12)
[12] = Placebo vs High dose, chronic visit, male subjects (n = 9)
[13] = Placebo vs Low dose, acute visit, all subjects (n = 12)
[14] = Placebo vs Low dose, acute visit, male subjects (n = 9)
[15] = Placebo vs Low dose, chronic visit, FMRP undetectable subjects (n = 5)
[16] = Placebo vs Low dose, chronic visit, all subjects (n = 12)
[17] = Placebo vs Low dose, chronic visit, male subjects (n = 9)
[18] = high dose relative to low dose, acute, male patients
[19] = high dose relative to low dose, acute, peripheral FMRP nondetectable patients
[20] = high dose relative to low dose, chronic, all patients
[21] = high dose relative to low dose, chronic, male patients
[22] = high dose relative to low dose, chronic, peripheral FMRP nondetectable patients
[23] = low dose vs placebo, chronic, male detectable FMRP group

With CCCNC(=O)c1nnc2c(-c3c(F)cccc3OC)cccc2c1N [AZD7325, 4-amino-8-(2-fluoro-6-methoxyphenyl)-N-propylcinnoline-3-carboxamide] the “low dose (5 mg BID) versus high dose (15 mg BID) in terms of adverse effects and signal (treatment efficacy)” value ([1]; human, in vivo) was “superior over high dose”, the responsiveness to treatment ([1]; low dose (5 mg twice per day), patients having undetectable peripheral FMRP) was “responsive; also recorded: showed responsiveness” and the clinical improvement [1, 6] was “Clinical improvement”. For the same compound, the responsiveness to treatment ([1]; low dose, patients having detectable peripheral FMRP) was “not responsive”, the WJ auditory attention [2] was “trending increase” and the “ABC_FXS_Subscale_1 Irritability” value ([3]; high dose, baseline) was 10.2 ± 10.52. For the same compound, the “ABC_FXS_Subscale_2 Socially Unresponsive/Lethargic” value ([3]; high dose, baseline) was 1.8 ± 1.92, the “ABC_FXS_Subscale_3 Stereotypy” value ([3]; high dose, baseline) was 5.0 ± 1.87 and the “ABC_FXS_Subscale_4 Hyperactivity” value ([3]; high dose, baseline) was 6.4 ± 6.80. The “ABC_FXS_Subscale_5 Inappropriate Speech” value ([3]; high dose, baseline) was 5.6 ± 4.56, the “ABC_FXS_Subscale_6 Social Avoidance” value ([3]; high dose, baseline) was 1.2 ± 1.79 and the “ABC_FXS_Subscale_1 Irritability” value ([3]; high dose, chronic) was 9.2 ± 7.05. For the same compound, the “ABC_FXS_Subscale_2 Socially Unresponsive/Lethargic” value ([3]; high dose, chronic) was 1.0 ± 1.22, the “ABC_FXS_Subscale_3 Stereotypy” value ([3]; high dose, chronic) was 3.4 ± 0.55 and the “ABC_FXS_Subscale_4 Hyperactivity” value ([3]; high dose, chronic) was 4.6 ± 6.31. The “ABC_FXS_Subscale_5 Inappropriate Speech” value ([3]; high dose, chronic) was 4.4 ± 3.78, the “ABC_FXS_Subscale_6 Social Avoidance” value ([3]; high dose, chronic) was 0.6 ± 0.89 and the “ABC_FXS_Subscale_1 Irritability” value ([3]; low dose, baseline) was 9.8 ± 8.23. The “ABC_FXS_Subscale_2 Socially Unresponsive/Lethargic” value ([3]; low dose, baseline) was 2.4 ± 1.52, the “ABC_FXS_Subscale_3 Stereotypy” value ([3]; low dose, baseline) was 3.8 ± 2.28 and the “ABC_FXS_Subscale_4 Hyperactivity” value ([3]; low dose, baseline) was 4.2 ± 3.77. The “ABC_FXS_Subscale_5 Inappropriate Speech” value ([3]; low dose, baseline) was 5.4 ± 4.16, the “ABC_FXS_Subscale_6 Social Avoidance” value ([3]; low dose, baseline) was 2.0 ± 1.87 and the “ABC_FXS_Subscale_1 Irritability” value ([3]; low dose, chronic) was 9.4 ± 9.99. The “ABC_FXS_Subscale_2 Socially Unresponsive/Lethargic” value ([3]; low dose, chronic) was 2.2 ± 2.39, the “ABC_FXS_Subscale_3 Stereotypy” value ([3]; low dose, chronic) was 4.6 ± 3.05 and the “ABC_FXS_Subscale_4 Hyperactivity” value ([3]; low dose, chronic) was 4.4 ± 4.98. For the same compound, the “ABC_FXS_Subscale_5 Inappropriate Speech” value ([3]; low dose, chronic) was 4.6 ± 3.29, the “ABC_FXS_Subscale_6 Social Avoidance” value ([3]; low dose, chronic) was 2.4 ± 1.82 and the “effect of drug on RBANS list learning” value ([4]; all eligible subjects (p=0.09)) was “trending effect”. The RBANS_LL change ([4]; low dose, female detectable FMRP subjects) was “improves RBANS growth in 2 of the three female detectable subjects”, the RBANS_LL change ([4]; low dose, male detectable FMRP subjects) was “bi-directional distributed and overlap with placebo” and the “effect on RBANS list learning” value ([4]; low dose, subgroup of males following removal of an outlier) was “significant beneficial effect”. The “RBANS list learning, difference of least squares means, Estimate: Baseline - High” value [4, 7] was 2.09, the “RBANS list learning, difference of least squares means, Estimate: Placebo - High” value [4, 7] was 0.84 and the “RBANS list learning, difference of least squares means, Estimate: Placebo - Low” value ([4]; subgroup of males (outlier removed), low dose 5 mg twice per day oral) was −4.00. The “RBANS list learning, difference of least squares means, Estimate: Low - High” value ([4]; subgroup of males (outlier removed), low dose vs high dose) was 4.84, the “EEG relative band power: alpha2” value [5, 8] was “local distant small clusters” and the “EEG relative band power: beta” value [5, 8] was “elevated broadly in the central and parietal regions”. For the same compound, the “EEG relative band power: delta” value [5, 8] was “local distant small clusters”, the “EEG relative band power: alpha2” value [5, 9] was “central frontal power decrease” and the “EEG relative band power: beta” value [5, 9] was “elevates a broad region in the central and parietal regions”. The “EEG relative band power: gamma1” value [5, 9] was “elevated electrodes in the right frontal region”, the “EEG relative band power: beta” value [5, 10] was “isolated electrodes in the parietal and occipital areas elevated” and the “EEG relative band power: gamma” value [5, 10] was “isolated electrodes in the parietal and occipital areas elevated”. For the same compound, the “EEG relative band power: theta” value [5, 10] was “decreased in the posterior area”, the “EEG relative band power: beta” value [5, 11] was “electrodes in the parietal and occipital areas elevated” and the “EEG relative band power: gamma” value [5, 11] was “electrodes in the parietal and occipital areas elevated”. For the same compound, the “EEG relative band power: theta” value [5, 11] was “decrease in the central area”, the “EEG relative band power: beta” value [5, 12] was “electrodes in the parietal and occipital areas elevated” and the “EEG relative band power: gamma” value [5, 12] was “electrodes in the parietal and occipital areas elevated”. For the same compound, the “EEG relative band power: theta” value [5, 12] was “decrease in the central area”, the “EEG relative band power: beta” value ([5]; Placebo vs Low dose, acute visit, FMRP undetectable subjects (n = 5)) was “limited numbers of significantly effected electrodes” and the “EEG relative band power: beta” value [5, 13] was “limited numbers of significantly effected electrodes”. The “EEG relative band power: theta” value [5, 13] was “limited numbers of significantly effected electrodes”, the “EEG relative band power: alpha” value [5, 14] was “limited numbers of significantly effected electrodes” and the “EEG relative band power: beta” value [5, 14] was “limited numbers of significantly effected electrodes”. For the same compound, the “EEG relative band power: beta” value [5, 15] was “elevates beta power”, the “EEG relative band power: theta” value [5, 15] was “reduces theta band power” and the “EEG relative band power: beta” value [5, 16] was “increases beta and gamma band in the parietal region”. The “EEG relative band power: gamma” value [5, 16] was “increases beta and gamma band in the parietal region”, the “EEG relative band power: theta” value [5, 16] was “reduces theta band” and the “EEG relative band power: alpha” value [5, 17] was “retain consistent”. The “EEG relative band power: beta” value [5, 17] was “increases beta and gamma bands in the parietal”, the “EEG relative band power: theta” value [5, 17] was “reduces theta band” and the “EEG relative band power: beta” value ([5]; high dose relative to low dose, acute, all patients) was “elevate in multiple clusters”. The “EEG relative band power: alpha2” value [5, 18] was “decreased power cluster in the right central region”, the “EEG relative band power: beta” value [5, 18] was “elevate in multiple clusters” and the “EEG relative band power: beta” value [5, 19] was “elevate in multiple clusters”. The “EEG relative band power: delta (left frontal cluster)” value [5, 19] was “reduced delta band power”, the “EEG relative band power: alpha2 (frontal)” value [5, 20] was “decrease” and the “EEG relative band power: beta” value [5, 20] was “scattered elevated spots”. The “EEG relative band power: delta” value [5, 20] was “scattered elevated spots”, the “EEG relative band power: gamma” value [5, 20] was “scattered elevated spots” and the “EEG relative band power: alpha2 (frontal area)” value [5, 21] was “decrease in relative power”. For the same compound, the “EEG relative band power: delta” value [5, 21] was “electrode in left central area elevated”, the “EEG relative band power: gamma sub-bands” value [5, 21] was “No significant change” and the “EEG relative band power: alpha2 (temporal side)” value [5, 22] was “decrease in relative power”. For the same compound, the “EEG relative band power: beta (temporal side)” value [5, 22] was “decrease in relative power”, the “EEG relative band power: gamma bands” value [5, 22] was “same occipital electrode elevated” and the “EEG power (beta band)” value ([5]; low dose vs placebo, chronic, female (detectable FMRP)) was “does not effect”. The EEG beta power [5, 23] was “elevates beta power”, the “EEG gamma 1 power (E31)” value [5, 23] was “elevates gamma 1 power” and the “EEG theta band power” value [5, 23] was “reduces theta band power”. The “EEG band power: gamma bands” value ([5]; low dose vs placebo, chronic, male subjects, parietal) was “increases beta and gamma bands in the parietal”, the “EEG gamma 1 power (E31)” value ([5]; low dose vs placebo, chronic, nondetectable FMRP group) was “elevates gamma 1 power” and the “EEG gamma 1 power” value ([5]; low dose, chronic, female subjects) was “does not grow gamma 1 power”. The “gamma waves (EEG)” value [5, 6] was “decreased gamma waves”.
